Experimental data from US7326725B2, “Fungicidal composition based on at least one pyridylmethylbenzamide derivatives and at least on dithiocarbamate derivative” (Bayer Cropscience S.A., priority 2001, dated 2008).

System: Plasmopara viticola
Assay: Curative test of 24 hours on grapevine infected with Plasmopara viticola
Type: in vivo
Details: single compound, curative spray on Chardonay grapevine, assessed after six days at 20° C.
Method: The trials consisted in curative tests of 24 hours on grapevine infected with Plasmopara viticola.
Grapevine (Chardonay variety) plants are grown on sandy soil in plastic pots, with one plant per pot. The plants which are two months old (6- to 7-leaf stage) are inoculated by spraying an aqueous suspension of Plasmopara viticola sporocysts obtained from infected leaves. The concentration of sporocysts is about 100 000 units per ml.
After infection, the inoculated plants are subjected to a curative treatment by spraying with compound (I) alone and compound (II) alone, and with a mixture of compound (I) and compound (II), in each case applied at a dose of 500 l/ha.
After infection and curative treatment, the plants are covered and left for six days at 20° C.
The percentage control of the disease (efficacy: see below) is calculated for each treatment with reference to the untreated plants and the expected results are calculated using the Colby formula (see below).
The difference between the real results and the expected results is used to determine the synergy between the two fungicidal compounds of the composition according to the invention.
The efficacy of the treatment is calculated using the following Abbott formula: […]
Analysis of the results is carried out using the Colby model:
[formula] in which E represents the expected percentage of inhibition of the disease for the combination of the two fungicides at defined doses (for example equal to x and y respectively), x is the percentage of inhibition observed for the disease by the compound (I) at a defined dose (equal to x), y is the percentage of inhibition observed for the disease by the compound (II) at a defined dose (equal to y). When the percentage of inhibition observed for the combination is greater than E, there is a synergistic effect.

| Compound | Percentage efficacy (level 0.1 ppm) [%] | Percentage efficacy (level 1 ppm) [%] | Percentage efficacy (level 5 ppm) [%] | Percentage efficacy (level 10 ppm) [%] | Percentage efficacy (level 25 ppm) [%] |
| --- | --- | --- | --- | --- | --- |
| O=C(NCc1ncc(C(F)(F)F)cc1Cl)c1c(Cl)cccc1Cl [(Ia), 2,6-dichloro-N-{[3-chloro-5-(trifluoromethyl)-2-pyridinyl]methyl}-benzamide] | 11.9 | 58.2 | 65.7 |  |  |
| mancozeb |  | 23.1 |  | 5.2 | 17.2 |
